Each block holds one molecule with its values, some of them ahead of it.
Legend:
[1] = system: canine PepT1 (cPepT1); assay: Influence of dexamethasone, insulin and IGF-I on H+-dependent GlySar uptake by MDCK cells (Trials 3A, 3B); type: cell-based; settings: for effect on H+-dependent GlySar uptake capacity: 5 or 500 nM in DMEM, 4 h of culture
Experimental: MDCK cells were maintained as described in Trial 1, except that cells were cultured for only 1 d before transport trials were performed. Following initial and common culture conditions, cells were cultured in a “nutrient depleted” buffer (Hepes/Tris (pH 7.5),140 mM NaCl, 5.4 mM KCl, 1.8 mM CaCl2, 0.8 mM MgSO4) that contained 5 mM glucose as an energy source, but that lacked amino acid or vitamin sources. In contrast, cells cultured in DMEM, or DMEM that contained 5 nM Dex, 500 nM Dex, 5 nM insulin, or 500 nM insulin, were adequately nourished. Media treatments (n=4) were as follows:
The measurement of [^3H]Glysarcosine uptake was performed by using the 24-well cluster tray method as previously described in the Methods section of Trial 1. Peptide uptake is reported as pmol* mg^−1 protein*30 min^−1. Uptake measurements were taken after 30 min and 4 h of culture in treatment media.
Trial 3B was conducted in the same manner as described for Trail 3A, except that cells were cultured in DMEM or DMEM that contained 1 nM IGF-1, 5 nM IGF-1, 25 nM IGF-1, or 100 nM IGF-1. Uptake measurements were taken after 30 min and 4 h of culture time.

[2] = molecular target: T1, PepT1 (Homo sapiens, UniProt P46059); settings: read-out: Ki of cefadroxil inhibition of GlySar uptake by PepT1; cited from earlier work
T1 sequence (P46059 1-708): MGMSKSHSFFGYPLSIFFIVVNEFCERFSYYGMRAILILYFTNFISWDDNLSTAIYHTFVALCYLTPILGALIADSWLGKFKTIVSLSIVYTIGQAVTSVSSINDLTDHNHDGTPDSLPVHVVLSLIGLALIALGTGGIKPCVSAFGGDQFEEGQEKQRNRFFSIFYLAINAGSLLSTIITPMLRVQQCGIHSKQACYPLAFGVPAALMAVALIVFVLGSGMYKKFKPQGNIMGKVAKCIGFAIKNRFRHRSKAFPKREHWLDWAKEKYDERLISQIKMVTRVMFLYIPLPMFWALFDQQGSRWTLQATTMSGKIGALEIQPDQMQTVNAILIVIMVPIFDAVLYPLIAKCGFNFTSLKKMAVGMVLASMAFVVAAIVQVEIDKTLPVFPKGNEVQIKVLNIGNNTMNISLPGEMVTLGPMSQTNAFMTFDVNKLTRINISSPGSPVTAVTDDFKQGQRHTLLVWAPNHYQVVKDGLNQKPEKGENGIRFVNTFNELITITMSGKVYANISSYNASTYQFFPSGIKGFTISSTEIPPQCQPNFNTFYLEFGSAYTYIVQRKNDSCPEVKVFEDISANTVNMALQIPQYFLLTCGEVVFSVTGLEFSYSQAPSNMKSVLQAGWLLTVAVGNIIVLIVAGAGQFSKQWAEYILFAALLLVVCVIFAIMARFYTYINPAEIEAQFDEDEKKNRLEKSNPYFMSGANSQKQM

[3] = molecular target: T2, canine PepT1 (cPepT1) (Canis lupus familiaris, UniProt Q8WMX5); assay: Inhibition of H+-dependent 100 μM GlySar uptake by MDCK cells cultured in LHM; type: cell-based; settings: 100 μM GlySar
T2 construct: endogenous in cells; host or cells: MDCK (Madin-Darby Canine Kidney) cells, whole-cell [3H]-GlySar uptake
T2 sequence (Q8WMX5 1-708): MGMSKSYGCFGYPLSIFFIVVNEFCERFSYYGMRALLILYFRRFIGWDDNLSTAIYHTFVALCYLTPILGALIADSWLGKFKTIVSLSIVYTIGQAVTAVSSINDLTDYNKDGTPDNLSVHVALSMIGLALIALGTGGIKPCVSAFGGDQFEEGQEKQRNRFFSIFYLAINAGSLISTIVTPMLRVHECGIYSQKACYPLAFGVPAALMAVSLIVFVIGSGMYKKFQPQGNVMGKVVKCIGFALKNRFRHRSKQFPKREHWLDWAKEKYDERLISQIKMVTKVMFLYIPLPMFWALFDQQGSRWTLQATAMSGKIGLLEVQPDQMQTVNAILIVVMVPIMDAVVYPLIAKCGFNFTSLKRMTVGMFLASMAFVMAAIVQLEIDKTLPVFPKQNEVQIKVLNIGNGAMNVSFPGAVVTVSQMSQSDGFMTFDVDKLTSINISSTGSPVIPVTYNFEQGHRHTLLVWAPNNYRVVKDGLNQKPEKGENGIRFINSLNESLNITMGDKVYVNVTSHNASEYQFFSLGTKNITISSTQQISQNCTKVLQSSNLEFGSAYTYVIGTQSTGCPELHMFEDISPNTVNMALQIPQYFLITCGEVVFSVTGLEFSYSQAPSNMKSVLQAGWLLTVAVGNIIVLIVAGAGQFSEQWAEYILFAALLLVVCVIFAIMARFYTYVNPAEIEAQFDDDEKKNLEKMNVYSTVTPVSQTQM
Experimental: Characteristic hallmarks of low affinity H^+/peptide cotransport activity, classically defined using membrane vesicles of several species, and more recently by functional expression studies using human, rat, and rabbit PepT1 cDNA, is the recognition of some, but not all, β-lactam antibiotics. […] To determine whether MDCK cPepT1 activity shared these functional features, the uptake of 100 μM GlySar in the absence and presence of pH 7.5 and pH 6.0 buffer, and, in pH 6.0 buffers, the presence of 1 mM additional GlySar (self-inhibitor control), 3 mM Penicillin-G, 30 μM cefadroxil, or 3 mM cefadroxil was compared (FIG. 13).
Other hallmarks of PepT1 function are the decreased ability of Gly-containing peptides to inhibit GlySar, in proportion to their length, and sensitivity to inhibition by carnosine (β-Ala-His).
Accordingly, the following general regimen was used to perform a series of experiments that evaluated the relative abilities of candidate di-(primarily) and tri-peptides to inhibit GlySar uptake by endogenously expressed cPepT1 in MDCK cells:
1. Sixty thousand cells/well were plated into collagen-coated 24-well trays and cultured at 37° C. in an atmosphere of 95% air/5% CO2 in DMEM/10% FCS that contained antibiotics for 1 day.
2. The media was removed and cells were cultured in LHM/10% FCS/antibiotics for 1 day.
3. The media was removed and cells cultured in LHM/10% FCS (no antibiotics) for 20 h.
4. The media was removed and cells cultured for 30 min in air at 37° C. in depletion medium (25 mM Hepes/Tris (pH 7.5), 140 mM NaCl, 5.4 mM KCl, 1.8 mM CaCl2, 0.8 mM MgSO4, and 5 mM glucose, to normalize intracellular nutrient pools.
5. Transport was initiated by replacing depletion medium with uptake medium (depletion medium adjusted to pH 6.0 or kept at pH 7.4) that contained 100 μM GlySar (at a specific activity of 5 μCi/mL, with [^3H]-GlySar supplying 2.88% of total GlySar substrate) and (or) 1 mM of inhibiting peptide.
In total, 23 inhibitory peptides and 2 drug compounds were screened using this protocol.

[4] = molecular target: T3, PepT2 (Homo sapiens, UniProt Q16348); settings: read-out: Ki of cefadroxil inhibition of PepT2 transport of GlySar; cited from earlier work
T3 sequence (Q16348 1-729): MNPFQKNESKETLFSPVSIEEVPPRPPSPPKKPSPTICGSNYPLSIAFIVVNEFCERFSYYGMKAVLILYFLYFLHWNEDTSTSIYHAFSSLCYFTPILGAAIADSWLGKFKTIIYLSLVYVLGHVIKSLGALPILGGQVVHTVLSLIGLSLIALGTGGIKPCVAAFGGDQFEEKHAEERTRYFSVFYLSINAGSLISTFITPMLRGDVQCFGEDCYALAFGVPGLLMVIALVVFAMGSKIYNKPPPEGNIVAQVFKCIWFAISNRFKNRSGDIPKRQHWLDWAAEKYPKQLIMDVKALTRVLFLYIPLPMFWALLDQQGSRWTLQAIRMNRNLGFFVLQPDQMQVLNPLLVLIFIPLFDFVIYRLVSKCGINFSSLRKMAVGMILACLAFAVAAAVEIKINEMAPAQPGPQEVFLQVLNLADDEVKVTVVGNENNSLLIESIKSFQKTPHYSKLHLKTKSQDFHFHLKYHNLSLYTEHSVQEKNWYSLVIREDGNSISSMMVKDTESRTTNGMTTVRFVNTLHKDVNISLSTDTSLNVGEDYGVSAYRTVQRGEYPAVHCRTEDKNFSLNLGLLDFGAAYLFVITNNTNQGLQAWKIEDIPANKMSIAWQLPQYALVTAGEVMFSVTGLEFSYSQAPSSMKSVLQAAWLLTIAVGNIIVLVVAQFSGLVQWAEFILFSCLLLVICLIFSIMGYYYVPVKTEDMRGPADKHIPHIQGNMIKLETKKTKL

[5] = molecular target: T2, canine PepT1 (cPepT1); assay: Substrate regulation of H+-dependent GlySar uptake capacity of MDCK cells cultured in DMEM (Example 3, Trials 1 and 2); type: cell-based; settings: 10 mM in DMEM
Experimental: All cells were plated (60,000/2 cm^2 well) and cultured (95% air/5% CO2, 37° C.) for 24 h in Dulbecco's Modified Eagle Media/10% fetal calf serum (FCS)/1%Antibiotic/Antimicrobial solution (ABAM) (DMEM media). Following these initial common culture conditions, cells then were cultured in DMEM, or DMEM that contained 10 mM of Camosine, GlyPhe, Phe, or Gly. Media were changed every 24 h. Media treatments (n=8) were as follows:
The measurement of [^3H]Glysarcosine uptake was performed by using a 24-well cluster tray method (Kilberg M S. Measurement of amino acid transport by hepatocytes in suspension and monolayer culture. Methods Enzym 1989; 173:564-575. Matthews J C, Aslanian A, McDonald K K, Yang W, Malandro M S, Novak D A, Kilberg M S. An expression system for mammalian amino acid transport using a stably maintained episomal vector. Anal Biochem 1997; 254:208-214), and used in Examples 1 and 2. Cells were cultured for 30 min in air at 37° C. in depletion medium (25 mM Hepes/Tris (pH 7.5), 140 mM NaCl, 5.4 mM KCl, 1.8 mM CaCl2, 0.8 mM MgSO4, and 5 mM glucose), to normalize intracellular nutrient pools before transport. The transport assays are initiated by replacing depletion medium with uptake medium (Depletion medium adjusted to pH 6.0) that contained 100 μM GlySar (5 μCi/mL, with [^3H]-GlySar supplying 2.88% of total GlySar). After a 30 minute incubation period, transport was terminated with four rinses of 4° C. depletion medium (pH 7.5). Two hundred and twenty μL of 10% trichloroacetic acid was added to each well, and the radioactivity of the supernatant quantified by liquid scintillation counting. The cells of each well are solubilized in 0.2 N NaOH/0.2% SDS and the protein quantified by using the modified Lowry assay, using bovine serum as a standard. Id. Peptide uptake will be reported as pmol* mg^−1 protein* 30 min^−1. Uptake measurements were taken after 24, 48, and 72 hours of culture in treatment media.
The MDCK cell line was maintained as described previously in the Methods section of Trial 1. […]

Molecule: insulin: insulin (negative control)
- effect on H+-dependent GlySar uptake capacity [1]: no effect

- % inhibition of H+-dependent GlySar uptake ([3]; 30 μM cefadroxil): not inhibited
- inhibition at 30 µM ([3]; MDCK, 30 μM cefadroxil): 0%
- inhibition at 3000 µM ([3]; MDCK, 3 mM cefadroxil): ~76%
Molecule: CC1=C(C(=O)O)N2C(=O)[C@@H](NC(=O)[C@H](N)c3ccc(O)cc3)[C@H]2SC1 [Cefadroxil]
- Ki [2]: 3 mM
- Ki [4]: 30 µM

Molecule: C[C@@H]1C[C@H]2[C@@H]3CCC4=CC(=O)C=C[C@]4(C)[C@@]3(F)[C@@H](O)C[C@]2(C)[C@@]1(O)C(=O)CO [dexamethasone]
- effect on H+-dependent GlySar uptake capacity [1]: no effect

Molecule: IGF-I: Insulin-like Growth factor I
- stimulation of H+-dependent GlySar uptake ([1]; increasing amounts of IGF-I (1 to 100 nM) in DMEM): no significant stimulation

- % inhibition of H+-dependent GlySar uptake ([3]; 1 mM extracellular substrate, pH 6.0, 30 min): 50%
- increase of GlySar uptake capacity over DMEM-cultured cells ([5]; 72 h of culture): 23%
- increase of GlySar uptake capacity over DMEM-cultured cells ([5]; 216 h of culture): 291%
Molecule: NCCC(=O)N[C@@H](Cc1cnc[nH]1)C(=O)O [Carnosine, Carnosine (β-AlaHis)]
